Test results as given in patent US20230165251A1, “SUBSTITUTED TOLYL FUNGICIDES AND THEIR MIXTURES” (FMC Corporation, priority 2020, published 2023).
Like-named read-outs stand apart in the source and are kept apart here. Values belong to the molecule of their own block, whether it stands above or below them.

How the values were obtained:
[1] = tested on: Puccinia recondita f. sp. tritici; test: Test B: preventive spray on wheat seedlings, wheat leaf rust; type: in vivo; settings: for pest or weed control at 10 ppm: Puccinia recondita, 192 h, Rate 10 ppm, read-out: Test B disease control rating
Source text: (§1) General protocol for preparing test suspensions for Tests A-F: the test compounds were first dissolved in acetone in an amount equal to 3% of the final volume and then suspended at the desired concentration (in ppm) in acetone and purified water (50/50 mix by volume) containing 250 ppm of the surfactant PEG400 (polyhydric alcohol esters). The resulting test suspensions were then used in Tests A-F.
The test solution was sprayed to the point of run-off on wheat seedlings. The following day the seedlings were inoculated with a spore suspension of Puccinia recondita f. sp. tritici (the causal agent of wheat leaf rust) and incubated in a saturated atmosphere at 20° C. for 24 h, and then moved to a growth chamber at 20° C. for 7 days, after which time disease ratings were made.
(§2) A rating of 100 indicates 100% disease control and a rating of 0 indicates no disease control (relative to the controls). A dash (-) indicates the compound was not tested.

Phakopsora pachyrhizi [2] = test: Test D: preventive spray on soybean seedlings, Asian soybean rust; type: in vivo; settings: for pest or weed control at 10 ppm: Phakopsora pachyrhizi, 216 h, Rate 10 ppm, read-out: Test D disease control rating
Source text: as §1
(§3) The test solution was sprayed to the point of run-off on soybean seedlings. The following day the seedlings were inoculated with a spore suspension of Phakopsora pachyrhizi (the causal agent of Asian soybean rust) and incubated in a saturated atmosphere at 22° C. for 24 h and then moved to a growth chamber at 22° C. for 8 days, after which time visual disease ratings were made.
as §2

Alternaria solani = test: Test F: preventive spray on tomato seedlings, tomato early blight; type: in vivo
Source text: as §1
(§4) The test suspension was sprayed to the point of run-off on tomato seedlings. The following day the seedlings were inoculated with a spore suspension of Alternaria solani (the causal agent of tomato early blight) and incubated in a saturated atmosphere at 27° C. for 48 h, and then moved to a growth chamber at 20° C. for 3 days, after which time visual disease ratings were made.
as §2

Phakopsora pachyrhizi [3] = test: Test G: Compound 41 or 63 alone and in mixtures on soybean seedlings, Asian soybean rust, Colby synergy; type: in vivo; settings: for pest or weed control at 0.403 ppm: Compound 63 0.403 ppm alone; for pest or weed control at 0.652 ppm: Compound 63 0.652 ppm alone
Source text: The general protocol for preparing test compositions for TEST G was as follows: Compound 41, Compound 63, N-(2,2,2-trifluoroethyl)-2-[[4-[5-(trifluoromethyl)-1,2,4-oxadiazol-3-yl]phenyl]methyl]-4-oxazolecarboxamide (b54.11a), ethyl 1-[[4-[[(1Z)-2-ethoxy-3,3,3-trifluoro-1-propen-1-yl]oxy]phenyl]methyl]-1H-pyrazole-4-carboxylate (b54.11c), ethyl 1-[[4-[[2-(trifluoromethyl)-1,3-dioxolan-2-yl]methoxy]phenyl]methyl]-1H-pyrazole-4-carboxylate (b54.11d), azoxystrobin, benzovindiflupyr, bixafen, chlorothalonil, cyproconazole, epoxiconazole, fenpropidin, fenpropimorph, fluindapyr, flutriafol, fluxapyroxad, inpyrfluxam, picoxystrobin, prothioconazole, pydiflumetofen, tebuconazole and trifloxystrobin were obtained as unformulated, technical-grade materials. Copper hydroxide and mancozeb was obtained as a formulated product marketed under the trademarks KOCIDE 3000 and MANZATE, respectively. Unformulated materials were first dissolved in acetone and then suspended at the desired concentration (in ppm) in acetone and purified water (50/50 mix by volume) containing 250 ppm of the surfactant Trem® 014 (polyhydric alcohol esters). Formulated materials were dispersed in sufficient water to give the desired concentration, and neither organic solvent nor surfactant was added to the suspension. The resulting test mixtures were then used in TEST G. The tests were run on four individual plants and the results reported as the mean average of the four plants.
The presence of a synergistic effect between two active ingredients was established with the aid of the Colby equation (see Colby, S. R. “Calculating Synergistic and Antagonistic Responses of Herbicide Combinations”, Weeds, (1967), 15, 20-22):
Using the method of Colby, the presence of a synergistic interaction between two active ingredients is established by first calculating the predicted activity, p, of the mixture based on activities of the two components applied alone. If p is lower than the experimentally established effect, synergism has occurred. In the equation above, A is the fungicidal activity in percentage control of one component applied alone at rate x. The B term is the fungicidal activity in percentage control of the second component applied at rate y. The equation estimates p, the expected fungicidal activity of the mixture of A at rate x with B at rate y if their effects are strictly additive and no interaction has occurred.
as §3, with “mixture” for “solution”
Results for TEST G are given below in Tables B-1 through J-1 for Compound 41, and Tables B-2 through J-2 for Compound 63. Each table corresponds to a set of evaluations performed together at the same time. In each table, a rating of 100 indicates 100% disease control and a rating of 0 indicates no disease control (relative to the controls). Columns labeled “Obsd” indicate the average of results observed from test run on four individual plants. Columns labeled “Exp” indicate the expected value for each treatment mixture using the Colby equation.

[4] = tested on: Blumeria graminis f. sp. tritici; test: Test C: preventive spray on wheat seedlings, wheat powdery mildew; type: in vivo; settings: Rate 250 ppm
Source text: as §1
The test suspension was sprayed to the point of run-off on wheat seedlings. The following day the seedlings were inoculated with a spore dust of Blumeria graminis f. sp. tritici, (also known as Erysiphe graminis f. sp. tritici, the causal agent of wheat powdery mildew) and incubated in a growth chamber at 20° C. for 8 days, after which time visual disease ratings were made.
as §2

Botrytis cinerea = test: Test E: preventive spray on tomato seedlings, tomato Botrytis; type: in vivo; settings: Rate 250 ppm
Source text: as §1
as §4, with “Botrytis cinerea” for “Alternaria solani”, “Botrytis)” for “early blight)”, “20°” for “27°”, “24°” for “20°”
as §2

Zymoseptoria tritici = test: Test A: preventive spray on wheat seedlings, wheat leaf blotch; type: in vivo; settings: Rate 250 ppm
Source text: as §1
The test solution was sprayed to the point of run-off on wheat seedlings. The following day the seedlings were inoculated with a spore suspension of Zymoseptoria tritici (the causal agent of wheat leaf blotch) and incubated in a saturated atmosphere at 24° C. for 48 h, and then moved to a growth chamber at 20° C. for 17 days, after which time disease ratings were made.
as §2

[5] = Phakopsora pachyrhizi, Table B-2, read-out: Test G Obsd
[6] = Phakopsora pachyrhizi, Table C-2, read-out: Test G Obsd

melting point: 104 to 108 °C
SMILES: CO/N=C(\C)c1cc(F)c(-n2ncc(-c3ccc(C)c(CNC(=O)OC)c3)n2)c(F)c1 [Compound 142, methyl (E)-N-[[5-[2-[2,6-difluoro-4-[1-(methoxyimino)ethyl]phenyl]-2H-1,2,3-triazol-4-yl]-2-methylphenyl]methyl]carbamate]
pest or weed control at 10 ppm [1]: 86%
pest or weed control at 10 ppm (Phakopsora pachyrhizi [2]): 100%

SMILES: COC(=O)NCc1cc(-c2ncn(-c3c(F)cc([N+](=O)[O-])cc3F)n2)ccc1C [Compound 107]
Test F disease control rating (Alternaria solani; Rate 250 ppm): 0%

melting point: 153 to 156 °C
SMILES: COC(=O)NNc1cc(-c2ccn(-c3c(F)cc(Cl)cc3F)n2)ccc1C [Compound 153]
pest or weed control at 10 ppm [1]: 68%
pest or weed control at 10 ppm (Phakopsora pachyrhizi [2]): 91%

SMILES: COC(=O)NCc1cc(-c2ccn(-c3c(F)cc(C(F)(F)F)cc3F)n2)ccc1C [Compound 64, methyl N-[[5-[1-[2,6-difluoro-4-(trifluoromethyl)phenyl]-1H-pyrazol-3-yl]-2-methylphenyl]methyl]carbamate]
Test F disease control rating (Alternaria solani; Rate 10 ppm): 0%

SMILES: COC(=O)NCc1cc(-c2ccn(-c3c(F)cc(C(C)C)cc3F)n2)ccc1C [Compound 63, methyl N-[[5-[1-[2,6-difluoro-4-(1-methylethyl)phenyl]-1H-pyrazol-3-yl]-2-methylphenyl]methyl]carbamate]
pest or weed control at 0.403 ppm (Phakopsora pachyrhizi [3]; [5]): 34%
pest or weed control at 0.652 ppm (Phakopsora pachyrhizi [3]; [5]): 68%
pest or weed control at 0.403 ppm (Phakopsora pachyrhizi [3]; [6]): 15%
pest or weed control at 0.652 ppm (Phakopsora pachyrhizi [3]; [6]): 46%
Test F disease control rating (Alternaria solani; Rate 10 ppm): 85%

SMILES: COC(=O)NCc1cc(-c2ccn(-c3c(F)cc(OC(F)F)cc3F)n2)ccc1C [Compound 15, methyl N-[[5-[1-[4-(difluoromethoxy)-2,6-difluorophenyl]-1H-pyrazol-3-yl]-2-methylphenyl]methyl]carbamate]
Test F disease control rating (Alternaria solani; Rate 10 ppm): 0%

SMILES: COC(=O)NCc1cc(-c2cn(-c3c(F)cc(F)cc3Cl)nn2)ccc1C [compound 122]
Test C disease control rating [4]: 0%
Test B disease control rating ([1]; Rate 250 ppm): 99%
Test D disease control rating (Phakopsora pachyrhizi [2]; Rate 250 ppm): 100%
Test E disease control rating (Botrytis cinerea): 0%
Test A disease control rating (Zymoseptoria tritici): 71%
Test F disease control rating (Alternaria solani; Rate 250 ppm): 0%

SMILES: COC(=O)NCc1cc(-c2cnn(-c3c(F)cc([N+](=O)[O-])cc3F)n2)ccc1C [Compound 118, methyl N-[[5-[2-(2,6-difluoro-4-nitrophenyl)-2H-1,2,3-triazol-4-yl]-2-methylphenyl]methyl]carbamate]
Test F disease control rating (Alternaria solani; Rate 250 ppm): 0%

SMILES: COC(=O)NCc1cc(-c2ccn(-c3c(F)cc(Cl)cc3F)n2)ccc1C [Compound 6, methyl N-[[5-[1-(4-chloro-2,6-difluorophenyl)-1H-pyrazol-3-yl]-2-methylphenyl]methyl]carbamate]
Test F disease control rating (Alternaria solani; Rate 10 ppm): 40%

SMILES: OC(Cc1ccccc1Cl)(Cn1nc[nH]c1=S)C1(Cl)CC1 (stereo not drawn) [Prothioconazole, prothioconazole]
pest or weed control at 10.165 ppm (Phakopsora pachyrhizi [3]; Phakopsora pachyrhizi, prothioconazole alone 10.165 ppm, read-out: Test G Obsd): 7%
pest or weed control at 16.339 ppm (Phakopsora pachyrhizi [3]; Phakopsora pachyrhizi, prothioconazole alone 16.339 ppm, read-out: Test G Obsd): 65%

SMILES: CON(C(=O)c1cn(C)nc1C(F)F)C(C)Cc1c(Cl)cc(Cl)cc1Cl (stereo not drawn) [Pydiflumetofen, pydiflumetofen]
Test G Obsd (Phakopsora pachyrhizi [3]; pydiflumetofen alone 41.364 ppm): 49%
Test G Obsd (Phakopsora pachyrhizi [3]; pydiflumetofen alone 70.950 ppm): 0%
Test G Obsd (Phakopsora pachyrhizi [3]; pydiflumetofen alone 128.793 ppm): 36%
Test G Obsd (Phakopsora pachyrhizi [3]; pydiflumetofen alone 135.850 ppm): 73%

SMILES: CO/C=C(/C(=O)OC)c1ccccc1Oc1cc(Oc2ccccc2C#N)ncn1 [Azoxystrobin, azoxystrobin]
Test G Obsd (Phakopsora pachyrhizi [3]; azoxystrobin alone 95.873 ppm): 70%
Test G Obsd (Phakopsora pachyrhizi [3]; azoxystrobin alone 169.226 ppm): 90%
